For the experiment, the target named is human Nav1.8 sodium channel (Homo sapiens, UniProt Q9Y5Y9). Put plainly: Blocking activity on sodium channel 1.8 (Nav1.8), whole-cell manual patch clamp. Format: cell-based. The settings on record: for inhibition at 0.001 µM: read-out: inhibition Percent @1 nM, 1 nM compound; for inhibition at 0.01 µM: read-out: inhibition Percent @10 nM, 10 nM compound; for inhibition at 0.03 µM: read-out: inhibition Percent @30 nM, 30 nM compound.
Chain of human Nav1.8 sodium channel (Q9Y5Y9 whole entry): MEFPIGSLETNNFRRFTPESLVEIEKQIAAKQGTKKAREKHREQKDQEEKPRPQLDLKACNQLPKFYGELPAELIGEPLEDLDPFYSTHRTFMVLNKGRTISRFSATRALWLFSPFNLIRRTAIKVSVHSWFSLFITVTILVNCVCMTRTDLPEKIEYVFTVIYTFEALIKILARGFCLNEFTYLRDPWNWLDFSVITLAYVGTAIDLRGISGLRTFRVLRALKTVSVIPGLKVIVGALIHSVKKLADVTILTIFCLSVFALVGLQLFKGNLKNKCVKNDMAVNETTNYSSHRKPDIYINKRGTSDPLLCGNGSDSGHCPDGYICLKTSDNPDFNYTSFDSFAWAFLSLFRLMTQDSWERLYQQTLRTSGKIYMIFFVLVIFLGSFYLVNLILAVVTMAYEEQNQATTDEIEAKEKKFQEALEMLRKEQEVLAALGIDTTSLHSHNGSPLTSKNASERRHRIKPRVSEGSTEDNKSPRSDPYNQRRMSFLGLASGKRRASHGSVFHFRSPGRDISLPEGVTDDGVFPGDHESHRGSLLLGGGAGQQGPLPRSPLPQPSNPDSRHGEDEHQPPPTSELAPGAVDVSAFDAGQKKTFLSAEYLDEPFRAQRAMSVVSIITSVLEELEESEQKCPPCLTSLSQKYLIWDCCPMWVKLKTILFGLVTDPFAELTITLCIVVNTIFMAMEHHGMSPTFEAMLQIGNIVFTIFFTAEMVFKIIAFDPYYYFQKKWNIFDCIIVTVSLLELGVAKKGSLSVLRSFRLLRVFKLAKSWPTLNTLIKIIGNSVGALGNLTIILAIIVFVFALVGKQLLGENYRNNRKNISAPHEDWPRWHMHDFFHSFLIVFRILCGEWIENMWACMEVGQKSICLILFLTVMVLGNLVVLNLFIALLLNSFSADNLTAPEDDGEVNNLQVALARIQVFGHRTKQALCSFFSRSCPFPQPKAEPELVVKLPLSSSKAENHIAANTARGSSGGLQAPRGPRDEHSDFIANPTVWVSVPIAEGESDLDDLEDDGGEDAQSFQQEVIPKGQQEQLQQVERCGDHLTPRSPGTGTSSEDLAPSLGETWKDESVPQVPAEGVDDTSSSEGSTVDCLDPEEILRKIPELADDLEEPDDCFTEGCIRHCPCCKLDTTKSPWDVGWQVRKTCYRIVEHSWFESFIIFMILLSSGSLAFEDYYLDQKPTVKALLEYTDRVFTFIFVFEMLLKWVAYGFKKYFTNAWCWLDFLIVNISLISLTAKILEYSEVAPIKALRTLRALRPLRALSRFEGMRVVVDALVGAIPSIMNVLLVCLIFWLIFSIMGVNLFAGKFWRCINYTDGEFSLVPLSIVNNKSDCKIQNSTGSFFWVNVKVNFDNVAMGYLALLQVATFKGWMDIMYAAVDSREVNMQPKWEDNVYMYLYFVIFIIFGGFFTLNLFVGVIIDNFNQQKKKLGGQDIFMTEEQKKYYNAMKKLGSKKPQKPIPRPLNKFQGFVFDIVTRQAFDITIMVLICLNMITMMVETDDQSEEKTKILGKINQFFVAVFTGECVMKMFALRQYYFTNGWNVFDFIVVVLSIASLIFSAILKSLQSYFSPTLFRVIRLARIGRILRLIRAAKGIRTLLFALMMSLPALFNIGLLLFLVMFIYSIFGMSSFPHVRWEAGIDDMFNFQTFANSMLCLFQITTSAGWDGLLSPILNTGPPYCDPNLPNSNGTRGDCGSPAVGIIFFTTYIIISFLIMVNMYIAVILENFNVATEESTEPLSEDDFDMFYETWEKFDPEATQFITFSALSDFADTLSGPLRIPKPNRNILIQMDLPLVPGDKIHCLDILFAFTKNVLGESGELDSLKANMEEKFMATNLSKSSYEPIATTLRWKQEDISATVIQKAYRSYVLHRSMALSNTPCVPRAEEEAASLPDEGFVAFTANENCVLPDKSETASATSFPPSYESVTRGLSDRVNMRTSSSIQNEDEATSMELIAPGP

On to `Cc1nc(N2CCC(F)(F)C(C)C2)c(C(=O)Nc2ccc(F)c(C(N)=NO)c2)cc1Cl` (single isomer, unassigned) [Compound I-41-P1, 5-chloro-2-(4,4-difluoro-3-methylpiperidin-1-yl)-N-(4-fluoro-3-(N'-hydroxyamidino)phenyl)-6-(methyl)nicotinamide], for which the inhibition at 0.001 µM turned out to be 38%. On the same count and under the same terms, in the case of `Cc1nc(N2CCCC(F)(F)CC2)c(C(=O)Nc2ccc(F)c(C(=N)N)c2)cc1Cl` [Compound I-2, N-(3-amidino-4-fluorophenyl)-5-chloro-2-(4,4-difluoroazepan-1-yl)-6-methylnicotinamide] it was 79%; in that of `COc1ccc(NC(=O)c2cc(Cl)c(C)nc2N2CCCC(F)(F)CC2)cc1C(=N)N` [Compound I-10, N-(3-amidino-4-methoxyphenyl)-5-chloro-2-(4,4-difluoroazepan-1-yl)-6-methylnicoti namide], 32%.

Consider `CN(C)c1nc(N2CCCC(F)(F)CC2)c(C(=O)Nc2ccc(F)c(C(N)=NO)c2)cc1Cl` [Compound I-43, 5-chloro-2-(4,4-difluoroazepan-1-yl)-6-(dimethylamino)-N-(4-fluoro-3-(N'-hydroxyamidino)phenyl)nicotinamide], for which the inhibition at 0.001 µM was 55%. Take `Cc1ccc(NC(=O)c2cc(Cl)c(C)nc2N2CCCC(F)(F)CC2)cc1C(N)=NO` [Compound I-7, 5-chloro-2-(4,4-difluoroazepan-1-yl)-N-(3-(N'-hydroxyamidino)-4-methylphenyl)-6-me thylnicotinamide]: the inhibition at 0.01 µM was 83%.

Turning to `NC(=NO)c1cc(NC(=O)c2cc(Cl)c(N3CCCC3)nc2N2CCCC(F)(F)CC2)ccc1F` [Compound I-46, 5-chloro-2-(4,4-difluoroazepan-1-yl)-N-(4-fluoro-3-(N'-hydroxyamidino)phenyl)-6-(pyrrolidinyl)nicotinamide], the inhibition at 0.01 µM was determined as 50%. As to `Cc1nc(N2CCC(F)(F)C(C)C2)c(C(=O)Nc2ccc(F)c(C(N)=NO)c2)cc1Cl` (single isomer, unassigned) [Compound I-41-P2, 5-chloro-2-(4,4-difluoro-3-methylpiperidin-1-yl)-N-(4-fluoro-3-(N'-hydroxyamidino)phenyl)-6-(methyl)nicotinamide], the “inhibition Percent @1 nM” value (1 nM compound, 0.001 µM) is given as 35%. With `Cc1nc(N2CCCC(F)(F)CC2)c(C(=O)Nc2ccc(F)c(C(=O)O)c2)cc1Cl` [Compound I7-b, 5-(5-chloro-2-(4,4-difluoroazepan-1-yl)-6-methylnicotinamido)-2-fluorobenzoic acid], the inhibition at 0.03 µM amounted to 33%. Same read-out and setting: in the case of `Cc1nc(N2CCCCCC2)c(C(=O)Nc2cccc(C(=N)N)c2)cc1Cl` [Compound I-23, 2-(azepan-1-yl)-N-(3-amidinophenyl)-5-chloro-6-methylnicotinamide] it was 95%; in that of `Cc1nc(N2CCCC(F)(F)CC2)c(C(=O)Nc2cccc(C(=O)NC(=N)N)c2)cc1Cl` [Compound I-18, N-(3-(amidinocarbamoyl)phenyl)-5-chloro-2-(4,4-difluoroazepan-1-yl)-6-methylnicoti namide], 90%. For the compound `Cc1nc(N2CCCC(F)(F)CC2)c(C(=O)Nc2ccc(F)c(C(N)=NO)c2)cc1C(F)(F)F` [Compound I-27, 2-(4,4-difluoroazepan-1-yl)-N-(4-fluoro-3-(N'-hydroxyamidino)phenyl)-6-methyl-5-(trifluoromethyl)nicotinamide], the inhibition at 0.01 µM is 83%.

For the compound `Cc1nc(N2CCCC(F)(F)CC2)c(C(=O)Nc2cccc(C(N)=NO)c2)cc1Cl` [Compound I-11, 5-chloro-2-(4,4-difluoroazepan-1-yl)-N-(3-(N'-hydroxyamidino)phenyl)-6-methylnicoti namide], the inhibition at 0.001 µM is 90%.

With `Cc1nc(N2CCCC(F)(F)CC2)c(C(=O)Nc2ccc(F)c(C(=O)NC(=N)N)c2)cc1Cl` [Compound I-17, N-(3-(amidinocarbamoyl)-4-fluorophenyl)-5-chloro-2-(4,4-difluoroazepan-1-yl)-6-met hylnicotinamide], the inhibition at 0.03 µM amounted to 99%.

For the origin of these results see patent EP4700018A1, “NAV1.8 INHIBITORS, PREPARATION METHOD THEREFOR AND USE THEREOF” (Shanghai Institute of Materia Medica, Chinese Academy of …, priority 2023, dated 2024).
